Patent publication US20260217735A1, “HETEROCYCLES AND USES THEREOF” (Kumquat Biosciences Inc., priority 2023, published 2026)

Tests used:
KRAS WT = target: T1, KRAS WT (Homo sapiens, UniProt P01116); assay: HTRF assay, wildtype KRAS interaction with SOS1; format: biochemical; conditions: bins <500 nM / 500 nM to 1000 nM, read-out: Inhibition of KRAS WT (IC50)
T1 construct: made in house; host or cells: E. coli, e.g. BL21 (DE3)

KRAS G12D = target: T2, KRAS G12D (Homo sapiens, UniProt P01116, G12D); assay: HTRF assay, KRAS G12D interaction with SOS1; format: biochemical; conditions: bins <500 nM / 500 nM to 1000 nM, read-out: Inhibition of KRAS G12D (IC50)
T2 construct: made in house; host or cells: E. coli, e.g. BL21 (DE3)

KRAS G12V = target: T3, KRAS G12V (Homo sapiens, UniProt P01116, G12V); assay: HTRF assay, KRAS G12V interaction with SOS1; format: biochemical; conditions: bins <500 nM / 500 nM to 1000 nM, read-out: Inhibition of KRAS G12V (IC50)
T3 construct: made in house; host or cells: E. coli, e.g. BL21 (DE3)

MiaPaca2 cells = assay: Ras cellular assay, growth of cells with K-Ras G12C mutation; format: cell-based; conditions: Homo sapiens, MIA PaCa-2; cell proliferation assay; bins ≤500 nM / >500 nM; read-out: Inhibition of MiaPaca2 Cells (IC50)
Procedure, shortened: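 Anchorage-independent growth: G12C-mutant MIA PaCa-2 plated in soft agar, time-zero plate read the next day when compound was dosed (final DMSO 0.3%). After growth to day 10, MTS-type absorbance at 490/660 nm relative to time zero gave IC50 via four-parameter fitting.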

KRAS G12S = target: T4, KRAS G12S (Homo sapiens, UniProt P01116, G12S); assay: HTRF assay, KRAS G12S interaction with SOS1; format: biochemical; conditions: bins <500 nM / 500 nM to 1000 nM, read-out: Inhibition of KRAS G12S (IC50)
T4 construct: made in house; host or cells: E. coli, e.g. BL21 (DE3)
T4 sequence (P01116 1-188 isoform P01116-2 G12S): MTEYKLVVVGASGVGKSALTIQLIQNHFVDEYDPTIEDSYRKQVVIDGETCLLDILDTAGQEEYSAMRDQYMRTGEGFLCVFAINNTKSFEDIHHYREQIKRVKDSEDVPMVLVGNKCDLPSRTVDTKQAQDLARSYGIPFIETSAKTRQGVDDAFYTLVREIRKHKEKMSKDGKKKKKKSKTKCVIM

T1 sequence (P01116 1-188 isoform P01116-2): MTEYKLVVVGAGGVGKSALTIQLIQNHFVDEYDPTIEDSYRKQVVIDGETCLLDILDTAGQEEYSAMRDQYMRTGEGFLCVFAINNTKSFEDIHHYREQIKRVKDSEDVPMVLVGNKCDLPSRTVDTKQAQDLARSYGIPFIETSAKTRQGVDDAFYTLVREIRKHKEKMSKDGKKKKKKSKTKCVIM
T2 sequence (P01116 1-188 isoform P01116-2 G12D): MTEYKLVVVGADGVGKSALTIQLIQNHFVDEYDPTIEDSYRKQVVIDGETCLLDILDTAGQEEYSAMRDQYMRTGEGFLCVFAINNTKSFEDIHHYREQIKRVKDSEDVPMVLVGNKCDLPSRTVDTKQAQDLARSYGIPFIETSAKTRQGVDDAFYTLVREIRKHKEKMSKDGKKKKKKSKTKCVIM
T3 sequence (P01116 1-188 isoform P01116-2 G12V): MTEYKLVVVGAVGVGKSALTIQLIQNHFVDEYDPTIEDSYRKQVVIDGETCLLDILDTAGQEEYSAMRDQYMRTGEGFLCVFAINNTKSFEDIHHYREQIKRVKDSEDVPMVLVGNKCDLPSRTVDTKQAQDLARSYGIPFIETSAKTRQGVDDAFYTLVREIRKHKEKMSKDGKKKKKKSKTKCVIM

| Compound | IC50 (KRAS WT) [nM] | IC50 (KRAS G12D) [nM] | IC50 (KRAS G12V) [nM] | IC50 (MiaPaca2 cells) [nM] | IC50 (KRAS G12S) [nM] |
| --- | --- | --- | --- | --- | --- |
| Cc1ncn(C(=O)N2CC3CCN(c4nc(OC[C@@]56CCCN5C[C@H](F)C6)nc5c(F)c(-c6ccc(F)c7sc(N)c(C#N)c67)c(Cl)cc45)C3C2)c1C (stereo partly drawn) [Compound 140, 2-amino-4-(6-chloro-4-(5-(4,5-dimethyl-1H-imidazole-1-carbonyl)hexahydropyrrolo[3,4-b]pyrrol-1(2H)-yl)-8-fluoro-2-(((2R,7aS)-2-fluorotetrahydro-1H-pyrrolizin-7a(5H)-yl)methoxy)quinazolin-7-yl)-7-fluorobenzo[b]thiophene-3-carbonitrile] | < 500 | < 500 | < 500 | ≤ 500 | < 500 |
| Cc1c(C#N)ncn1C(=O)N1CC[C@@H](N(C)c2nc(OC[C@@]34CCCN3C[C@H](F)C4)nc3c(F)c(-c4ccc(F)c5sc(N)c(C#N)c45)c(Cl)cc23)[C@H]1C [Compound 141, 1-((2R,3R)-3-((7-(2-amino-3-cyano-7-fluorobenzo[b]thiophen-4-yl)-6-chloro-8-fluoro-2-(((2R,7aS)-2-fluorotetrahydro-1H-pyrrolizin-7a(5H)-yl)methoxy)quinazolin-4-yl)(methyl)amino)-2-methylpyrrolidine-1-carbonyl)-5-methyl-1H-imidazole-4-carbonitrile] | < 500 | < 500 | < 500 | ≤ 500 | < 500 |
| Cc1cn(C(=O)N2CC[C@@H](N(C)c3nc(OC[C@@]45CCCN4C[C@H](F)C5)nc4c(F)c(-c5ccc(F)c6sc(N)c(C#N)c56)c(Cl)cc34)[C@H]2C)cn1 [Compound 144, 2-amino-4-(6-chloro-8-fluoro-2-(((2R,7aS)-2-fluorotetrahydro-1H-pyrrolizin-7a(5H)-yl)methoxy)-4-(methyl((2R,3R)-2-methyl-1-(4-methyl-1H-imidazole-1-carbonyl)pyrrolidin-3-yl)amino)quinazolin-7-yl)-7-fluorobenzo[b]thiophene-3-carbonitrile] | < 500 | < 500 | < 500 | ≤ 500 | < 500 |
| CCN(c1nc(OC[C@@]23CCCN2C[C@H](F)C3)nc2c(F)c(-c3ccc(F)c4sc(N)c(C#N)c34)c(Cl)cc12)[C@@H]1CCN(C(=O)n2cnc(C)c2C)[C@@H]1C [Compound 145, 2-amino-4-(6-chloro-4-(((2R,3R)-1-(4,5-dimethyl-1H-imidazole-1-carbonyl)-2-methylpyrrolidin-3-yl)(ethyl)amino)-8-fluoro-2-(((2R,7aS)-2-fluorotetrahydro-1H-pyrrolizin-7a(5H)-yl)methoxy)quinazolin-7-yl)-7-fluorobenzo[b]thiophene-3-carbonitrile] | < 500 | < 500 | < 500 | ≤ 500 | < 500 |
| Cc1ncn(C(=O)N2CC[C@@]23CCN(c2nc(OC[C@@]45CCCN4C[C@H](F)C5)nc4c(F)c(-c5ccc(F)c6sc(N)c(C#N)c56)c(Cl)cc24)C3)c1C [Compound 147, 2-amino-4-(6-chloro-4-((R)-1-(4,5-dimethyl-1H-imidazole-1-carbonyl)-1,6-diazaspiro[3.4]octan-6-yl)-8-fluoro-2-(((2R,7aS)-2-fluorotetrahydro-1H-pyrrolizin-7a(5H)-yl)methoxy)quinazolin-7-yl)-7-fluorobenzo[b]thiophene-3-carbonitrile] | < 500 | < 500 | < 500 | ≤ 500 | < 500 |
| CCN(c1nc(OC[C@@]23CCCN2C[C@H](F)C3)nc2c(F)c(-c3ccc(F)c4sc(N)c(C#N)c34)c(C(F)(F)F)cc12)[C@@H]1CCN(C(=O)n2ccnc2C)[C@@H]1C [Compound 148, 2-amino-4-(4-(ethyl((2R,3R)-2-methyl-1-(2-methyl-1H-imidazole-1-carbonyl)pyrrolidin-3-yl)amino)-8-fluoro-2-(((2R,7aS)-2-fluorotetrahydro-1H-pyrrolizin-7a(5H)-yl)methoxy)-6-(trifluoromethyl)quinazolin-7-yl)-7-fluorobenzo[b]thiophene-3-carbonitrile] | < 500 | < 500 | < 500 | ≤ 500 | < 500 |
| CCN(c1nc(OC[C@@]23CCCN2C[C@H](F)C3)nc2c(F)c(-c3ccc(F)c4sc(N)c(C#N)c34)c(Cl)cc12)[C@@H]1CCN(C(=O)n2cnc(C#N)c2C)[C@@H]1C [Compound 149, 1-((2R,3R)-3-((7-(2-amino-3-cyano-7-fluorobenzo[b]thiophen-4-yl)-6-chloro-8-fluoro-2-(((2R,7aS)-2-fluorotetrahydro-1H-pyrrolizin-7a(5H)-yl)methoxy)quinazolin-4-yl)(ethyl)amino)-2-methylpyrrolidine-1-carbonyl)-5-methyl-1H-imidazole-4-carbonitrile] | < 500 | < 500 | < 500 | ≤ 500 | < 500 |
| Cc1cn(C(=O)N(C)C2CN(c3nc(OC[C@@]45CCCN4C[C@H](F)C5)nc4c(F)c(-c5ccc(F)c6sc(N)c(C#N)c56)c(Cl)cc34)CC2F)cn1 (stereo partly drawn) [Compound 151, N-(1-((R)-7-(2-amino-3-cyano-7-fluorobenzo[b]thiophen-4-yl)-6-chloro-8-fluoro-2-(((2R,7aS)-2-fluorotetrahydro-1H-pyrrolizin-7a(5H)-yl)methoxy)quinazolin-4-yl)-4-fluoropyrrolidin-3-yl)-N,4-dimethyl-1H-imidazole-1-carboxamide] | < 500 | < 500 | < 500 | ≤ 500 | < 500 |
| CC[C@H]1N(C(=O)n2cnc(C#N)c2C)C[C@]12CCCCN(c1nc(OC[C@@]34CCCN3C[C@H](F)C4)nc3c(F)c(-c4ccc(F)c5sc(N)c(C#N)c45)c(Cl)cc13)C2 [Compound 152, 1-((1R,4R)-6-(7-(2-amino-3-cyano-7-fluorobenzo[b]thiophen-4-yl)-6-chloro-8-fluoro-2-(((2R,7aS)-2-fluorotetrahydro-1H-pyrrolizin-7a(5H)-yl)methoxy)quinazolin-4-yl)-1-ethyl-2,6-diazaspiro[3.6]decane-2-carbonyl)-5-methyl-1H-imidazole-4-carbonitrile] | < 500 | < 500 | < 500 | ≤ 500 | < 500 |
| Cc1nccn1C(=O)N1CC2(CCCCN(c3nc(OC[C@@]45CCCN4C[C@H](F)C5)nc4c(F)c(-c5ccc(F)c6sc(N)c(C#N)c56)c(Cl)cc34)C2)C1 [Compound 154, 2-amino-4-(6-chloro-8-fluoro-2-(((2R,7aS)-2-fluorotetrahydro-1H-pyrrolizin-7a(5H)-yl)methoxy)-4-(2-(2-methyl-1H-imidazole-1-carbonyl)-2,6-diazaspiro[3.6]decan-6-yl)quinazolin-7-yl)-7-fluorobenzo[b]thiophene-3-carbonitrile] | < 500 | < 500 | < 500 | ≤ 500 | < 500 |
| Cc1cn(C(=O)N2CC(CN(C)c3nc(OC[C@@]45CCCN4C[C@H](F)C5)nc4c(F)c(-c5ccc(F)c6sc(N)c(C#N)c56)c(Cl)cc34)(C(F)F)C2)cn1 [Compound 156, 2-amino-4-(6-chloro-4-(((3-(difluoromethyl)-1-(4-methyl-1H-imidazole-1-carbonyl)azetidin-3-yl)methyl)(methyl)amino)-8-fluoro-2-(((2R,7aS)-2-fluorotetrahydro-1H-pyrrolizin-7a(5H)-yl)methoxy)quinazolin-7-yl)-7-fluorobenzo[b]thiophene-3-carbonitrile] | < 500 | < 500 | < 500 | ≤ 500 | < 500 |
| Cc1nc(C#N)cn1C(=O)N1CC[C@@H](N(C)c2nc(OC[C@@]34CCCN3C[C@H](F)C4)nc3c(F)c(-c4ccc(F)c5sc(N)c(C#N)c45)c(Cl)cc23)[C@H]1C [Compound 158, 1-((2R,3R)-3-((7-(2-amino-3-cyano-7-fluorobenzo[b]thiophen-4-yl)-6-chloro-8-fluoro-2-(((2R,7aS)-2-fluorotetrahydro-1H-pyrrolizin-7a(5H)-yl)methoxy)quinazolin-4-yl)(methyl)amino)-2-methylpyrrolidine-1-carbonyl)-2-methyl-1H-imidazole-4-carbonitrile] | < 500 | < 500 | < 500 | ≤ 500 | < 500 |
| CCN(c1nc(OC[C@@]23CCCN2C[C@H](F)C3)nc2c(F)c(-c3ccc(F)c4sc(N)c(C#N)c34)c(C(F)(F)F)cc12)[C@@H]1CCN(C(=O)n2cc(C#N)nc2C)[C@@H]1C [Compound 159, 1-((2R,3R)-3-((7-(2-amino-3-cyano-7-fluorobenzo[b]thiophen-4-yl)-8-fluoro-2-(((2R,7aS)-2-fluorotetrahydro-1H-pyrrolizin-7a(5H)-yl)methoxy)-6-(trifluoromethyl)quinazolin-4-yl)(ethyl)amino)-2-methylpyrrolidine-1-carbonyl)-2-methyl-1H-imidazole-4-carbonitrile] | < 500 | < 500 | < 500 | ≤ 500 | < 500 |
